{"source": "patent US10143748B2", "about": "“B-cell reduction using CD37-specific and CD20-specific binding molecules” (Emergent Product Development Seattle, LLC, priority 2005, dated 2018)", "key": {"B-CLL cells": {"system": "B-CLL cells", "assay": "MTT cell viability of CLL cells with fludarabine and TRU-016", "type": "cell-based, human", "conditions": "MTT at 48 hr, TRU-016 with fludarabine, FIG. 27", "procedure": "Cells were treated with TRU-016 at dosages ranging from 0.1-100 μg/mL and with fludarabine at dosages ranging from 0-20 μM (see FIG. 27). TRU-016 was provided by Trubion Pharmaceuticals (Seattle, Wash.). Fludarabine (F-araA) was purchased from SIGMA (St. Louis, Mo.). RPMI 1640 media was purchased from Invitrogen (Carlsbad, Calif.). Fluorescein isothiocyanate (FITC)-labeled annexin V, and propidium iodide (P1) were purchased from BD Pharmingen, San Diego, Calif. 13-(4,5-dimethylthiazol-2-yl)-2,5-diphenyltetrazolium bromide (MTT) was purchased from Sigma (St. Louis, Mo.). B-CLL cells were isolated immediately following donation using ficoll density gradient centrifugation (Ficoll-Paque Plus, Amersham Biosciences, Piscataway, N.J.). […]\nCells were treated in vitro as described herein. […] Cell viability was assessed using MTT assays at 48 hr, and apoptosis was measured using Annexin V/PI at 24 hr.\nMTT assays were performed to measure cell viability as described herein. […] Samples were measured with a plate reader at 0.D.540. Cell viability was expressed as the percentage of viability compared with media control.\nA synergistic effect was determined by use of the isobologram method. […]"}, "CD37": {"molecular_target": "T1, CD37 (Homo sapiens, UniProt P11049)", "T1 sequence (P11049 1-281)": "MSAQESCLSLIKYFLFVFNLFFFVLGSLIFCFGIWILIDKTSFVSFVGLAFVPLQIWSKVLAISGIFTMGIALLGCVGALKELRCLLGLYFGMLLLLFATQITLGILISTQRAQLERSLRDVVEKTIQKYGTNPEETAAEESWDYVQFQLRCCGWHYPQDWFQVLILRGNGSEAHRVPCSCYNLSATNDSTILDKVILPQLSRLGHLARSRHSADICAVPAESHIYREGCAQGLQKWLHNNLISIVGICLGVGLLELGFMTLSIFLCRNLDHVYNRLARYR", "assay": "competitive binding / FACs cross blocking of FITC anti-CD37 reagents on BJAB cells", "parameters": "BJAB-cells, a B lymphoblastoid B-cell line, (courtesy of Ed Clark, University of Washington); endogenous in cells; host or cells: BJAB B lymphoblastoid cell line", "conditions": "unlabeled blocking reagent, FIG. 2", "procedure": "FITC labeled antibody conjugates were titrated from 10 μg/mL to 10 pg/mL in an initial binding study to determine the optimal amounts to use in the blocking studies. The level chosen was just below saturating amounts, and was kept constant in the subsequent assays, while levels of blocking antibody were increased over a 10-fold range. Data were plotted as percent of maximal binding versus concentration of blocking antibody, so that higher levels indicate less efficient blocking, while lower levels indicate more efficient blocking activity.\nBJAB-cells, a B lymphoblastoid B-cell line, (courtesy of Ed Clark, University of Washington) were then stained with a panel of various clones of anti-CD37 MAbs, including MB371, BL14, NMN46, IPO24, HH1, WR17, and the TRU-016 SMIP.\nFor competitive binding assays, 2.5×10^5 BJAB cells were incubated in 96-well V-bottom plates in staining media (PBS with 2% mouse sera) with the FITC-conjugated anti-CD37 MAbs at 1.25 μg/mL in the presence of unconjugated anti-CD37 MAb at the indicated concentrations (2.5, 1.25, 0.6, or 0.3 μg/ml) or staining media for 45 minutes on ice in the dark. Blocking antibodies and FITC labeled antibody conjugates were added to reactions prior to addition of cells. […] The cells were analyzed by flow cytometry using a FACsCalibur instrument and CellQuest software (BD Biosciences, San Jose, Calif.). […]"}}}
{"substance": "G28-1 scFv VH11S(SSC—P)H WCH2 WCH3 [TRU-016]", "values": [{"measurement": "relative cell viability in cells treated with fludarabine", "setting": "B-CLL cells", "value": "effectively reduced relative cell viability"}, {"measurement": "blocking activity (inhibition of binding of FITC anti-CD37 conjugates)", "setting": "CD37", "value": "highest level of blocking activity"}]}
